This passage reports IC50 and Activity results from ChEMBL document CHEMBL5576089, “Discovery of Oxidized p-Terphenyls as Phosphodiesterase 4 Inhibitors from Marine-Derived Fungi” (J Nat Prod, 2024).

Each structure is given as a SMILES string. Calls of active or inactive are those of the source. The rule behind the calls is not given here.

For one data set, the target named is Phosphodiesterase 4 (Homo sapiens, UniProt P27815+Q08499+Q07343+Q08493). In words: Inhibition of PDE4 (unknown origin) using [3H]cAMP[…] as substrate incubated for 15 mins by phosphodiesterase scintillation proximity assay. The format is protein assay.
In data set [1] the test system is MRC5. In words: Anti-fibrotic activity in TGF-beta1-activated human MRC5 cells assessed as reduction in alpha-SMA mRNA level at 5 to 20 uM incubated for 48 hrs by RT-qPCR analysis. The format is functional, cell-based. The conditions noted are these: dose 5-20 µM.
In data set [2] the test system is MRC5. In words: Anti-fibrotic activity in TGF-beta1-activated human MRC5 cells assessed as reduction in alpha-SMA protein expression incubated for 48 hrs by Western blot analysis. The conditions noted are these: dose 5-20 µM. Format: functional, cell-based.
Data set [3] relates to MRC5. In words: Anti-fibrotic activity in TGF-beta1-activated human MRC5 cells assessed as reduction in COL1 protein expression at 20 uM incubated for 48 hrs by DAPI staining based immunofluorescence microscopic analysis. Format: functional, cell-based.
For data set [4], the system named is MRC5. In words: Anti-fibrotic activity in TGF-beta1-activated human MRC5 cells assessed as reduction in FN1 mRNA level at 5 to 20 uM incubated for 48 hrs by RT-qPCR analysis. Format: functional, cell-based. The settings on record: dose 5-20 µM.
Data set [5] deals with RAW264.7. In words: Antiinflammatory activity in LPS-induced mouse RAW264.7 cells assessed as reduction in IL-6 mRNA level at 10 to 20 uM preincubated with compound for 4 hrs followed by LPS stimulation and measured after 24 hrs by RT-qPCR analysis. The settings on record: dose 10-20 µM, time 28.0 hrs. The format is functional, cell-based.
For data set [6], the system named is RAW264.7. In words: Cytotoxicity against mouse RAW264.7 cells assessed as reduction in cell viability at 10 to 160 uM incubated for 48 hrs by CCK8 assay. The format is toxicity, cell-based. The settings on record: raw264.7, 48 h, dose 10-160 µM.
Data set [7] concerns NIH3T3. Kind of data set: Anti-fibrotic activity in TGF-beta1-induced mouse NIH3T3 cells assessed as reduction in fibronectin expression at 20 uM incubated for 48 hrs by Western blot analysis. Format: functional, cell-based.
Data set [8] has as its system NIH3T3. In words: Cytotoxicity against mouse NIH3T3 cells assessed as reduction in cell viability incubated for 48 hrs. Format: toxicity, cell-based. The conditions noted are these: nih3t3, 48 h.
Data set [9] has as its system MRC5. Kind of data set: Anti-fibrotic activity in TGF-beta1-activated human MRC5 cells assessed as reduction in alpha-SMA protein expression at 20 uM incubated for 48 hrs by DAPI staining based immunofluorescence microscopic analysis. Format: functional, cell-based.
The subject of data set [10] is MRC5. In words: Anti-fibrotic activity in TGF-beta1-activated human MRC5 cells assessed as reduction in FN1 protein expression incubated for 48 hrs by Western blot analysis. The conditions noted are these: dose 5-20 µM. The format is functional, cell-based.
Data set [11] has as its system MRC5. Kind of data set: Anti-fibrotic activity in TGF-beta1-activated human MRC5 cells assessed as reduction in COL1 protein expression incubated for 48 hrs by Western blot analysis. The format is functional, cell-based. The conditions noted are these: dose 5-20 µM.
Data set [12] deals with MRC5. Kind of data set: Anti-fibrotic activity in TGF-beta1-activated human MRC5 cells assessed as reduction in COL-1 mRNA level at 5 to 20 uM incubated for 48 hrs by RT-qPCR analysis. Format: functional, cell-based. The settings on record: dose 5-20 µM.
The subject of data set [13] is RAW264.7. In words: Antiinflammatory activity in LPS-induced mouse RAW264.7 cells assessed as reduction in IL-1beta mRNA level at 10 to 20 uM preincubated with compound for 4 hrs followed by LPS stimulation and measured after 24 hrs by RT-qPCR analysis. The settings on record: dose 10-20 µM, time 28.0 hrs. The format is functional, cell-based.
In data set [14] the test system is RAW264.7. In words: Antiinflammatory activity in LPS-induced mouse RAW264.7 cells assessed as reduction in TNF-alpha mRNA level at 10 to 20 uM preincubated with compound for 4 hrs followed by LPS stimulation and measured after 24 hrs by RT-qPCR analysis. Format: functional, cell-based. The settings on record: dose 10-20 µM, time 28.0 hrs.
Data set [15] has as its system MRC5. In words: Anti-fibrotic activity in TGF-beta1-activated human MRC5 cells assessed as reduction in alpha-SMA mRNA level at 10 uM incubated for 48 hrs by RT-qPCR analysis. The format is functional, cell-based.
The subject of data set [16] is MRC5. Kind of data set: Anti-fibrotic activity in TGF-beta1-activated human MRC5 cells assessed as reduction in FN1 mRNA level at 10 uM incubated for 48 hrs by RT-qPCR analysis. The format is functional, cell-based.
Data set [17] has as its system MRC5. Kind of data set: Anti-fibrotic activity in TGF-beta1-activated human MRC5 cells assessed as reduction in COL1 mRNA level at 10 uM incubated for 48 hrs by RT-qPCR analysis. Format: functional, cell-based.

`COc1c(O)c(-c2ccccc2)c(O)c(OC)c1-c1ccc(O)cc1` came in with an IC50 at Phosphodiesterase 4 of 620 nM.

Take `COc1cc(-c2ccc(O)cc2)c(OC)c(O)c1-c1ccc(O)c(CC=C(C)C)c1` [PRENYLTERPHENYLLIN]: the IC50 at Phosphodiesterase 4 worked out at 4200 nM.

In the case of `COc1ccc(-c2c(OC)cc(-c3ccc(O)c(CC=C(C)C)c3)c(OC)c2O)cc1OC`, the IC50 against Phosphodiesterase 4 came out at 1800 nM.

On Phosphodiesterase 4, `COc1cc(-c2ccccc2)c(OC)c(O)c1-c1ccc(OCC=C(C)C)c(O)c1` displayed an IC50 of 3500 nM.

Take `COc1c(O)c(-c2ccccc2)c(OC(C)=O)c(OC)c1-c1ccccc1`: the outcome in the data set with MRC5 [1], in the data set on MRC5 [3], in the data set on MRC5 [4], in the data set with RAW264.7 [5], in the data set with NIH3T3 [7] and with MRC5 [9] was Active. The outcome with MRC5 [12], in the data set with RAW264.7 [13] and with RAW264.7 [14] was Active. Further, the Activity result was “Dose-Dependent Effect” in the data set with MRC5 [2]; “Non-Toxic” with RAW264.7 [6]; “Non-Toxic” in the data set with NIH3T3 [8]; “Dose-Dependent Effect” with MRC5 [10]; “Dose-Dependent Effect” in the data set with MRC5 [11]. The compound also yielded an IC50 against Phosphodiesterase 4 of 1200 nM.

As to `COc1cc(-c2ccc(O)c(CC=C(C)C)c2)c(OC)c(O)c1-c1ccc(OCC=C(C)C)c(O)c1`, the half-maximal inhibitory concentration (IC50) on Phosphodiesterase 4 was determined as 3000 nM.

The compound `COc1c(-c2ccc(O)cc2)cc(O)c(-c2ccccc2)c1O` yielded an IC50 at Phosphodiesterase 4 of 16000 nM. This IC50 lies about 5.3-fold higher than the previous one.

For `Cc1ccc(=O)n(-c2ccccc2)c1`, the outcome in the data set with MRC5 [15], in the data set with MRC5 [16] and in the data set on MRC5 [17] was Active.

In turn, `COc1c(O)c(-c2ccccc2)c(O)c(OC)c1-c1ccccc1` came in with an IC50 against Phosphodiesterase 4 of 400 nM. This counts as sub-micromolar.
